In US20200077655A1, “Use of an Acyclic Picolinamide Compound as a Fungicide for Control of Phytopathogenic Fungi in Orchard, Vineyard and Plantation Crops” (Dow AgroSciences LLC, priority 2017, published 2020):

Assays:
Assay type in all cases: in vivo
[1] = tested on: Cladosporium carpopilum (CLADSP); assay: Field assessment of almond scab; conditions: almond nut incidence, 121 DAAA
Description: A fungicidal treatment containing Compound I, applied in an SC formulation (MSO built-in) and tank mixed with an adjuvant (Agnique BP-420, 50% w/w at 0.2% v/v or Adsee C80W 80%), was sprayed as a single application on almond trees (PRNDU, Winter variety) at rates of 60, 120, 150, and 180 g ai/ha. The experimental plots were run with natural infestation. The treatment was part of an experimental trial designed as a randomized complete block (RCB) with three replications and a plot of approximately 16×22 ft. Compound I was applied at water volume of 100 gal/acre, using a Mistblower sprayer (Orifice nozzle 2.3 setting).
Nut incidence (number of visual diseased nuts per 10 nuts per tree on whole plot) was assessed 121 days after application A (121 DAAA). Using Abbotts, % nut incidence of the treatments was used vs the nontreated to calculate % control.

Capnodium sp. (CAPDSP) = assay: Field assessment of sooty mold on pears
Description: A 10% SC formulation of Compound I was tank mixed with three different adjuvants: Agnique BP420 (50% w/w at 0.3% v/v), Ethomeen T18H (50% w/w at 0.15% v/v) and Trycol (50% w/w at 0.3% v/v). Formulations of compound I were sprayed on the plant canopy of pear trees (Highland variety) of approximately 2.5 m in height at rates of 100, 150 and 200 grams of active ingredient per hectare (g ai/ha). The trial was based on six foliar applications during the growing season at approximately 12 day intervals with natural pear scab and sooty mold infections in open field conditions. The treatment was part of an experimental trial designed as a randomized complete block with four replications and a plot of approximately 3×5 m. Formulations of compound I were applied with a SOLO mistblower sprayer at a water volume of 1500 L/ha.
For VENTPI evaluation, percent control was calculated based on incidence and severity in fruit assessment vs the nontreated control on a random selection of 50 fruits per plot. […] Percent control for both diseases was calculated at 11DAAE, 7DAAF and 15DAAF.

[2] = tested on: Stigmina carpophila (STIGCA); assay: Field assessment of two trials for shot hole in almond (AUDPC); conditions: almond leaf incidence
Description: A fungicidal treatment containing Compound I, applied in an SC formulation (MSO built-in) and tank mixed with an adjuvant (Agnique BP-420, 50% w/w at 0.2% v/v or Adsee C80W 80%), was sprayed on almond trees (PRNDU, Winters or Carmel varieties) at growth stage BBCH71 and 72 at rates of 60, 120, 150, and 180 g ai/ha in two trials. The experimental plots were run with natural infestation. The treatments were part of experimental trials designed as a randomized complete block (RCB) with three replications and a plot of approximately 14×20 ft, both trials. Compound I was applied at water volume of 100 gal/acre, using a Mistblower sprayer (Orifice nozzle 0.125 setting), both trials.
Percent Leaf incidence (calculated from the number of visual diseased leaves per 30 (Winters) or 50 (Carmel) leaves per tree on whole plot) was assessed three or four times during the trial. Area under the disease progress curve (AUDPC) was calculated for each plot using the sets of recorded leaf incidence data. Relative percent control was calculated from the AUDPC as percent of the untreated control using Abbotts.

Alternaria mali (ALTEMA) = assay: Field assessment of leaf spot of apple, protectant and curative trials
Protocol: Assessment of compound I on leaf spot of apple (ALTEMA), in both protectant and curative fashion, was performed in two separate field trials. For the protectant trial, a fungicidal treatment containing a 10% SC formulation of Compound I, either alone or with an adjuvant (Agnique BP420, 50% w/w at 0.3% v/v; or ETHOMEEN T18H, 50% w/w at 0.2% v/v), was sprayed on the plant canopy of apple trees (Hongxing variety) six times during the growing season of apples with each application coming at 15 day intervals. Formulations of Compound I, with or without adjuvants, were applied at rates of 100, 125 and 150 grams of active ingredient per hectare (g ai/ha) and were applied at water volume of 4500 L/ha. The experimental plots were inoculated three times with the leaf spot pathogen, the first inoculation performed at 2 days after the first application (Application A, 2DAAA), with the following applications at 2DAAC and 2DAAD. The treatment was part of an experimental trial designed as a randomized complete block with three replications and a plot size of 3 trees.
For the curative trial, a fungicidal treatment containing a 10% SC formulation of Compound I, either alone or with an adjuvant (Agnique BP420, 50% w/w at 0.3% v/v; or ETHOMEEN T18H, 50% w/w at 0.2% v/v), was sprayed on the plant canopy of apple trees (Hongxing variety) six times during the growing season of apples with each application coming at 15 day intervals. Formulations of Compound I, with or without adjuvants, were applied at rates of 100, 125 and 150 grams of active ingredient per hectare (g ai/ha) and were applied at water volume of 4500 L/ha. The experimental plots were inoculated three times with the leaf spot pathogen, the first inoculation performed at 5 days before the first application. The second inoculation was at 5 days before the third application and the third inoculation coming at 5 days before the fourth application. The treatment was part of an experimental trial designed as a randomized complete block with three replications and a plot size of 3 trees.
Disease incidence was assessed as percentage of diseased foliage per plant. Apple leaf spot infection was assessed six times, with the last assessment coming at 90 days after the first application. Area under the disease progress curve (AUDPC) was calculated for each plot using the sets of recorded visual infection data. Relative AUDPC (% control based on AUDPC) was calculated as percent of the nontreated control.

[3] = 60 g ai/ha, Agnique BP420, 240 mL/ha
[4] = 120 g ai/ha, Agnique BP420, 480 mL/ha
[5] = 150 g ai/ha, Agnique BP420, 600 mL/ha
[6] = 180 g ai/ha, Agnique BP420, 720 mL/ha
[7] = 100 g ai/ha, adjuvant ETHOMEEN, 10% SC
[8] = 100 g ai/ha, adjuvant None, 10% SC
[9] = 125 g ai/ha, adjuvant Agnique BP420, 10% SC
[10] = 125 g ai/ha, adjuvant ETHOMEEN, 10% SC
[11] = 150 g ai/ha, adjuvant ETHOMEEN, 10% SC

`COc1ccnc(C(=O)N[C@@H](C)C(=O)O[C@@H](C)C(c2ccc(F)cc2)c2ccc(F)cc2)c1OC(C)=O` [Compound I, (S)-1,1-bis(4-fluorophenyl)propan-2-yl (3-acetoxy-4-methoxypicolinoyl)-L-alaninate] was tested, and the “Calc Percent Control of CLADSP” value [1, 3] was 47.3%, the “Calc Percent Control of CLADSP” value ([1]; 60 g ai/ha, MSO, 120 g ai/ha) was 61.8% and the “Calc Percent Control of CLADSP” value [1, 4] was 68.2%. For the same compound, the “Calc Percent Control of CLADSP” value ([1]; 120 g ai/ha, MSO, 240 g ai/ha) was 97.0%, the “Calc Percent Control of CLADSP” value [1, 5] was 69.7% and the “Calc Percent Control of CLADSP” value ([1]; 150 g ai/ha, MSO, 300 g ai/ha) was 55.1%. For the same compound, the “Calc Percent Control of CLADSP” value [1, 6] was 90.9%, the “Calc Percent Control of CLADSP” value ([1]; 180 g ai/ha, MSO, 360 g ai/ha) was 39.5% and the “Percent control CAPDSP, incidence in leaf assessment” value (from here on “Percent control CAPDSP, incidence”) (Capnodium sp. (CAPDSP); 100 g ai/ha, adjuvant Agnique BP420 (first such line, r11), 15 days after final application) was “A (76-100)”. For the same compound, the “Percent control CAPDSP, incidence” value (Capnodium sp. (CAPDSP); 100 g ai/ha, adjuvant Agnique BP420 (second such line, r13), 15 days after final application) was “A (76-100)”, the “Percent control CAPDSP, incidence” value (Capnodium sp. (CAPDSP); 100 g ai/ha, adjuvant ETHOMEEN, 15 days after final application) was “A (76-100)” and the “Percent control CAPDSP, incidence” value (Capnodium sp. (CAPDSP); 100 g ai/ha, adjuvant None, 15 days after final application) was “A (76-100)”. For the same compound, the “Percent control CAPDSP, incidence” value (Capnodium sp. (CAPDSP); 100 g ai/ha, adjuvant Trycol, 15 days after final application) was “A (76-100)”, the “Percent control CAPDSP, incidence” value (Capnodium sp. (CAPDSP); 200 g ai/ha, adjuvant Agnique BP420, 15 days after final application) was “A (76-100)” and the “Calculated Percent Control (AUDPC) of STIGCA” value (“Calculated Percent Control” below) [2, 3] was 45.2%. For the same compound, the “Calculated Percent Control” value ([2]; 60 g ai/ha, MSO, 120 g ai/ha) was 47.9%, the “Calculated Percent Control” value ([2]; 120 g ai/ha, Adsee C80W, 300 g ai/ha) was 44.6% and the “Calculated Percent Control” value [2, 4] was 49%. For the same compound, the “Calculated Percent Control” value ([2]; 120 g ai/ha, MSO, 240 g ai/ha) was 48.3%, the “Calculated Percent Control” value [2, 5] was 41.1% and the “Calculated Percent Control” value ([2]; 150 g ai/ha, MSO, 300 g ai/ha) was 45.1%. For the same compound, the “Calculated Percent Control” value [2, 6] was 30.1%, the “Calculated Percent Control” value ([2]; 180 g ai/ha, MSO, 360 g ai/ha) was 49.0% and the “% Control Curative (AUDPC, leaf infection)” value (“% Control Curative” below) (Alternaria mali (ALTEMA); [7]) was “A (76-100)”. The “% Control Protectant (AUDPC, leaf infection)” value (“% Control Protectant” below) (Alternaria mali (ALTEMA); [7]) was “A (76-100)”, the “% Control Curative” value (Alternaria mali (ALTEMA); [8]) was “B (51-75)” and the “% Control Protectant” value (Alternaria mali (ALTEMA); [8]) was “B (51-75)”. For the same compound, the “% Control Curative” value (Alternaria mali (ALTEMA); [9]) was “A (76-100)”, the “% Control Protectant” value (Alternaria mali (ALTEMA); [9]) was “A (76-100)” and the “% Control Curative” value (Alternaria mali (ALTEMA); [10]) was “A (76-100)”. The “% Control Protectant” value (Alternaria mali (ALTEMA); [10]) was “A (76-100)”, the “% Control Curative” value (Alternaria mali (ALTEMA); [11]) was “A (76-100)” and the “% Control Protectant” value (Alternaria mali (ALTEMA); [11]) was “A (76-100)”.
